Publication PMC9458058, “Synthesis of N-Substituted Iminosugar C-Glycosides and Evaluation as Promising α-Glucosidase Inhibitors” (Molecules, 2022)
Read-outs that look alike come from different tables or passages of the source.

Columns and labels:
α-glucosidase from yeast = α-glucosidase from yeast (Saccharomyces cerevisiae, UniProt P53341); assay: biochemical; format: biochemical; settings: for inhibition of α-glucosidase, in words: Figure 3, 1 µg/mL, relative to lead compound 4 / Acarbose; for inhibition potency compared with compound 5λ, in words: Table 2
Chain of α-glucosidase from yeast (P53341 whole entry): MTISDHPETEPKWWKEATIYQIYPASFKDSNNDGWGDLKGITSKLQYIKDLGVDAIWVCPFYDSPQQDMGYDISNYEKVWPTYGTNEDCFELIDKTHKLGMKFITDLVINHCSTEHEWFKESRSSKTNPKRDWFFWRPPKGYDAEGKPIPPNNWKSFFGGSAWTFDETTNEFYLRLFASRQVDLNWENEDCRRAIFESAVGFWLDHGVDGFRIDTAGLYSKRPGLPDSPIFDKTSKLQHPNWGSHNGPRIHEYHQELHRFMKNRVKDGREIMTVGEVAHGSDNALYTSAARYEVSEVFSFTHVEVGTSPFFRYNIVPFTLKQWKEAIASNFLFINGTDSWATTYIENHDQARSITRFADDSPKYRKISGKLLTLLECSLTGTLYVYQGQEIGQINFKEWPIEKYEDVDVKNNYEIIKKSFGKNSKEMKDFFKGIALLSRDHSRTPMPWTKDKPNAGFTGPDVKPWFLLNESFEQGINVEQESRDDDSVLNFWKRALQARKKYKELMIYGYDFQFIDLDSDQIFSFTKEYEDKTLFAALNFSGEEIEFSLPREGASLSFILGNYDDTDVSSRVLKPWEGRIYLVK
Method: The inhibitory potency of the synthesized N-substituted iminosugar C-glycosides 5 was assessed by testing the compounds in assays for the α-glucosidase from yeast. […] Alternatively, N atom was modified with various benzaldehydes, giving a library of iminosugar C-glycosides containing phenyl.
The extracts of each sample were dissolved in distilled water to prepare a certain concentration. 150 µL of the sample solution was mixed with 150 µL of maltose solution (prepared with 0.2 M, pH = 6.8 phosphate buffer) at a certain concentration, and cultured at 37 °C for 10 min. Then 150 µL of the enzyme solution at a certain concentration was added and mixed. The reaction was carried out at 37 °C for 60 min. The reaction was terminated in a boiling water bath for 10 min and centrifuged at 3000 r/min for 10 min. The supernatant was taken to determine the content of glucose with Glu kit. […] Enzyme activity inhibition rate (%) = (negative-sample)/(negative-blank) × 100%.

α-glucosidase = α-glucosidase (Saccharomyces cerevisiae, UniProt P53341); assay: Enzyme kinetics experiment (ultrafiltration recovery, Lineweaver-Burk plots); format: biochemical
Chain of α-glucosidase (P53341 whole entry): as above
From the text: To determine which mechanism 6e belonged to, we removed the unreacted inhibitor from the enzyme solution by ultrafiltration, and examined whether the activity would be recovered or not by the method described in the literatures. When an enzyme solution containing 6e was subjected to ultrafiltration and then redissolved with the same concentration, the α-glucosidase activity was substantially recovered (Figure 5A).
Further analysis of the compound 6e, in order to reveal the type of enzyme inhibition on α-glucosidase, was done with different substrate concentration.
Enzyme kinetics experiment: The principle of the experimental method is the same as that of the above method, in which the micro-membrane centrifuge tube with a pore diameter of 3K is used for small molecule centrifugal separation. In the enzyme kinetics experiment, the concentration of enzyme was set at a fixed concentration, and five concentration gradients were designed for the solution of substrate maltose. The linear relationship was plotted using the obtained results combined with the Michaelis-Menten equation.

[1] = read-out: IC50 against α-glucosidase from yeast

## CC(=O)C[C@H]1NC[C@@H](O)[C@@H](O)[C@H]1O [Compound 4, 1-C-Acetylmethyl-5-deoxy-5-amino-α-D-ribopyranoside]
α-glucosidase from yeast
  IC50: > 20 µM
  inhibition of α-glucosidase, in words: weak inhibitory activity

## CCCN1C[C@@H](O)[C@@H](O)[C@@H](O)[C@H]1CC(C)=O [Compound 5a, (1R, 2S, 3R, 4R)-1-Acetylmethyl-2,3,4-trihydroxyl-N-n-propylpiperidine]
α-glucosidase from yeast
  inhibition of α-glucosidase, in words: no improvement of α-glucosidase inhibition

## CC(=O)CC1C(O)C(O)C(O)CN1Cc1ccc(C)cc1 [Compound 5j, (1R, 2S, 3R, 4R)-1-Acetylmethyl-2,3,4-trihydroxyl-N-4-methylbenzylpiperidine]
α-glucosidase from yeast
  inhibition of α-glucosidase, in words: The same result was obtained

## CC(=O)CC1C(O)C(O)C(O)CN1Cc1cccc(C)c1 [Compound 5k, (1R, 2S, 3R, 4R)-1-Acetylmethyl-2,3,4-trihydroxyl-N-3-methylbenzylpiperidine]
α-glucosidase from yeast
  inhibition of α-glucosidase, in words: The same result was obtained

## CC(=O)CC1C(O)C(O)C(O)CN1Cc1ccc(C(F)(F)F)cc1 [Compound 5l, (1R, 2S, 3R, 4R)-1-Acetylmethyl-2,3,4-trihydroxyl-N-4-trifluoromethylbenzylpiperidine]
α-glucosidase from yeast
  inhibition of α-glucosidase, in words: The same result was obtained

## CC(=O)CC1C(O)C(O)C(O)CN1Cc1ccc(C#N)cc1 [Compound 5m, (1R, 2S, 3R, 4R)-1-Acetylmethyl-2,3,4-trihydroxyl-N-4-cyanobenzylpiperidine]
α-glucosidase from yeast
  inhibition of α-glucosidase, in words: The same result was obtained

## CC(=O)CC1C(O)C(O)C(O)CN1Cc1ccc([N+](=O)[O-])cc1 [Compound 5n, (1R, 2S, 3R, 4R)-1-Acetylmethyl-2,3,4-trihydroxyl-N-4-nitrobenzylpiperidine]
α-glucosidase from yeast
  inhibition of α-glucosidase, in words: The same result was obtained

## COc1ccc(CN2C[C@@H](O)[C@@H](O)[C@@H](O)[C@H]2CC(C)=O)cc1 [Compound 5o, (1R, 2S, 3R, 4R)-1-Acetylmethyl-2,3,4-trihydroxyl-N-4-methoxylbenzylpiperidine]
α-glucosidase from yeast
  inhibition of α-glucosidase, in words: The same result was obtained

## COc1cccc(CN2C[C@@H](O)[C@@H](O)[C@@H](O)[C@H]2CC(C)=O)c1 [Compound 5p, (1R, 2S, 3R, 4R)-1-Acetylmethyl-2,3,4-trihydroxyl-N-3-methoxylbenzylpiperidine]
α-glucosidase from yeast
  inhibition of α-glucosidase, in words: The same result was obtained

## CC(=O)CC1C(O)C(O)C(O)CN1Cc1ccc(Cl)cc1 [Compound 5q, (1R, 2S, 3R, 4R)-1-Acetylmethyl-2,3,4-trihydroxyl-N-4-chlorobenzylpiperidine]
α-glucosidase from yeast
  inhibition of α-glucosidase, in words: doesn’t show any significant improvement

## CC(=O)CC1C(O)C(O)C(O)CN1Cc1ccccc1Cl [Compound 5r, (1R, 2S, 3R, 4R)-1-Acetylmethyl-2,3,4-trihydroxyl-N-2-chlorobenzylpiperidine]
α-glucosidase from yeast
  IC50: 12 µM
  inhibition of α-glucosidase, in words: enhanced the enzyme inhibition

## CC(=O)CC1C(O)C(O)C(O)CN1Cc1cccc(Cl)c1 [Compound 5t, (1R, 2S, 3R, 4R)-1-Acetylmethyl-2,3,4-trihydroxyl-N-3-chlorobenzylpiperidine]
α-glucosidase from yeast
  inhibition of α-glucosidase, in words: doesn’t show any significant improvement

## CC(=O)CC1C(O)C(O)C(O)CN1Cc1ccc(Br)cc1 [Compound 5u, (1R, 2S, 3R, 4R)-1-Acetylmethyl-2,3,4-trihydroxyl-N-4-bromobenzylpiperidine]
α-glucosidase from yeast
  inhibition of α-glucosidase, in words: doesn’t show any significant improvement

## CC(=O)CC1C(O)C(O)C(O)CN1Cc1ccccc1Br [Compound 5v, (1R, 2S, 3R, 4R)-1-Acetylmethyl-2,3,4-trihydroxyl-N-2-bromobenzylpiperidine]
α-glucosidase from yeast
  inhibition of α-glucosidase, in words: enhanced the enzyme inhibition

## CC(=O)CC1C(O)C(O)C(O)CN1Cc1cccc(Br)c1 [Compound 5w, (1R, 2S, 3R, 4R)-1-Acetylmethyl-2,3,4-trihydroxyl-N-3-bromobenzylpiperidine]
α-glucosidase from yeast
  inhibition of α-glucosidase, in words: doesn’t show any significant improvement

## CC(=O)CC1C(O)C(O)C(O)CN1Cc1ccc(F)cc1 [Compound 5x, (1R, 2S, 3R, 4R)-1-Acetylmethyl-2,3,4-trihydroxyl-N-4-fluorobenzylpiperidine]
α-glucosidase from yeast
  inhibition of α-glucosidase, in words: doesn’t show any significant improvement

## CC(=O)CC1C(O)C(O)C(O)CN1Cc1ccccc1F [Compound 5y, (1R, 2S, 3R, 4R)-1-Acetylmethyl-2,3,4-trihydroxyl-N-2-fluorobenzylpiperidine]
α-glucosidase from yeast
  inhibition of α-glucosidase, in words: doesn’t show any significant improvement

## CC(=O)CC1C(O)C(O)C(O)CN1Cc1cccc(F)c1 [Compound 5z, (1R, 2S, 3R, 4R)-1-Acetylmethyl-2,3,4-trihydroxyl-N-3-fluorobenzylpiperidine]
α-glucosidase from yeast
  inhibition of α-glucosidase, in words: doesn’t show any significant improvement

## CC(=O)CC1C(O)C(O)C(O)CN1Cc1ccccc1O [Compound 5θ, (1R, 2S, 3R, 4R)-1-Acetylmethyl-2,3,4-trihydroxyl-N-2-hydroxylbenzylpiperidine]
α-glucosidase from yeast
  IC50: > 20 µM
  inhibition of α-glucosidase, in words: reduced the inhibitory potency significantly

## CC(=O)CC1C(O)C(O)C(O)CN1Cc1ccc(O)cc1 [Compound 5λ, (1R, 2S, 3R, 4R)-1-Acetylmethyl-2,3,4-trihydroxyl-N-4-hydroxylbenzylpiperidine]
α-glucosidase from yeast
  IC50: 7.4 µM
  inhibition of α-glucosidase, in words: improved the enzyme inhibition

## CC(=O)CC1C(O)C(O)C(O)CN1Cc1cccc(O)c1 [Compound 5π, (1R, 2S, 3R, 4R)-1-Acetylmethyl-2,3,4-trihydroxyl-N-3-hydroxylbenzylpiperidine]
α-glucosidase from yeast
  IC50: > 20 µM
  inhibition of α-glucosidase, in words: reduced the inhibitory potency significantly

## CC(=O)C[C@@H]1[C@H](O)[C@H](O)[C@H](O)CN1Cc1ccc(O)c(Cl)c1 [Compound 6a, (1R, 2S, 3R, 4R)-1-Acetylmethyl-2,3,4-trihydroxyl-N-3-chloro-4-hydroxylbenzylpiperidine]
α-glucosidase from yeast
  inhibition potency compared with compound 5λ, in words: slightly improve the inhibition potency
α-glucosidase from yeast; [1]
  IC50: 5.6 µM

## CC(=O)C[C@@H]1[C@H](O)[C@H](O)[C@H](O)CN1Cc1ccc(O)c(Br)c1 [Compound 6b, (1R, 2S, 3R, 4R)-1-Acetylmethyl-2,3,4-trihydroxyl-N-3-bromo-4-hydroxylbenzylpiperidine]
α-glucosidase from yeast
  inhibition potency compared with compound 5λ, in words: slightly improve the inhibition potency
α-glucosidase from yeast; [1]
  IC50: 5.3 µM

## CC(=O)C[C@@H]1[C@H](O)[C@H](O)[C@H](O)CN1Cc1ccc(O)c(F)c1 [Compound 6c, (1R, 2S, 3R, 4R)-1-Acetylmethyl-2,3,4-trihydroxyl-N-3-fluoro-4-hydroxylbenzylpiperidine]
α-glucosidase from yeast
  inhibition potency compared with compound 5λ, in words: slightly improve the inhibition potency
α-glucosidase from yeast; [1]
  IC50: 3.3 µM

## CC(=O)C[C@@H]1[C@H](O)[C@H](O)[C@H](O)CN1Cc1ccc(O)cc1Cl [Compound 6d, (1R, 2S, 3R, 4R)-1-Acetylmethyl-2,3,4-trihydroxyl-N-2-chloro-4-hydroxylbenzylpiperidine]
α-glucosidase from yeast
  inhibition compared with positive control Acarbose, in words: equivalent to positive control Acarbose
α-glucosidase from yeast; [1]
  IC50: 2.4 µM

## CC(=O)C[C@@H]1[C@H](O)[C@H](O)[C@H](O)CN1Cc1c(Cl)cc(O)cc1Cl [Compound 6e, (1R, 2S, 3R, 4R)-1-Acetylmethyl-2,3,4-trihydroxyl-N-2,6-dichloro-4-hydroxylbenzylpiperidine]
α-glucosidase from yeast
  inhibition compared with positive control Acarbose, in words: stronger inhibitory potency than positive control Acarbose
  inhibitory potency relative to positive control Acarbose: 2 fold
α-glucosidase from yeast; [1]
  IC50: 0.9 µM
α-glucosidase; Lineweaver-Burk plots
  type of enzyme inhibition: uncompetitive inhibitor
α-glucosidase; Lineweaver-Burk plots, different substrate concentration
  Ki: 8.6 µM
α-glucosidase; enzyme activity after removal of inhibitor by ultrafiltration
  reversibility of inhibition: reversible inhibitor

## COc1cc(CN2C[C@@H](O)[C@@H](O)[C@@H](O)[C@H]2CC(C)=O)ccc1O [Compound 6f, (1R, 2S, 3R, 4R)-1-Acetylmethyl-2,3,4-trihydroxyl-N-4-hydroxyl-methoxylbenzylpiperidine]
α-glucosidase from yeast
  IC50: > 20 µM
  inhibition potency compared with compound 5λ, in words: severely diminishes the inhibition

## CCOc1cc(CN2C[C@@H](O)[C@@H](O)[C@@H](O)[C@H]2CC(C)=O)ccc1O [Compound 6g, (1R, 2S, 3R, 4R)-1-Acetylmethyl-2,3,4-trihydroxyl-N-3-ethyoxyl-4-hydroxylbenzylpiperidine]
α-glucosidase from yeast
  IC50: > 20 µM
  inhibition potency compared with compound 5λ, in words: severely diminishes the inhibition

## COc1ccc(CN2C[C@@H](O)[C@@H](O)[C@@H](O)[C@H]2CC(C)=O)cc1O [Compound 6h, (1R, 2S, 3R, 4R)-1-Acetylmethyl-2,3,4-trihydroxyl-N-3-hydroxyl-4-methoxylbenzylpiperidine]
α-glucosidase from yeast
  IC50: > 20 µM

## CC(=O)C[C@@H]1[C@H](O)[C@H](O)[C@H](O)CN1Cc1cc(Br)c(O)c(Br)c1 [Compound 6i, (1R, 2S, 3R, 4R)-1-Acetylmethyl-2,3,4-trihydroxyl-N-3,5-dibromo-4-hydroxylbenzylpiperidine]
α-glucosidase from yeast
  inhibition potency compared with compound 5λ, in words: slightly improve the inhibition potency
α-glucosidase from yeast; [1]
  IC50: 5.5 µM
